Laboratory results as given in patent US12286435B2, “Compound having benzo seven-membered ring structure, preparation method therefor, and use thereof” (BIONNA (BEIJING) MEDICAL TECHNOLOGY CO., LTD., priority 2019, dated 2025).
Values joined by “and” are separate entries in the source; they are usually repeats but may differ in a detail not shown here. Equal values may be shown once. Where a name gives a salt, the structure may show the parent alone.

Key:
[1] = target: BRD4 BD1 protein (Homo sapiens (Human), UniProt O60885); assay: Fluorescence polarization binding affinity (Ki) with BRD4 BD1 protein; details: fluorescence polarization; Ki calculated from IC50
[2] = target: BRD4 BD2 protein (Homo sapiens (Human), UniProt O60885); assay: Fluorescence polarization binding affinity (Ki) with BRD4 BD2 protein; details: fluorescence polarization; Ki calculated from IC50
[3] = tested on: multiple myeloma MM.1S cell line; assay: Cell viability (CCK-8), multiple myeloma MM.1S; format: cell-based; details: Homo sapiens, MM1.S, 96 h, MM.1S cells, 4 days, CCK-8, 50% inhibition of cell growth
Outline: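 Cells (about 3000-5000 per well) exposed to 3-fold serial dilutions of compound for 4 days at 37° C, 5% CO2. CCK-8 added 2-4 h, absorbance at 450 nm, viability normalised to untreated cells after medium-only blank subtraction; IC50 is concentration giving 50% growth inhibition.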

[4] = tested on: leukemia MV4-11 cell line; assay: Cell viability (CCK-8), leukemia MV4-11; format: cell-based; details: Homo sapiens, 96 h; MV4-11 cells, 4 days, CCK-8, 50% inhibition of cell growth
Protocol: 3. Determination of cell viability of the compound
The sample to be tested was dissolved with 100% dimethyl sulfoxide to prepare a 20 mM stock solution of the compound, which was diluted with 100% dimethyl sulfoxide to the highest compound concentration required for the experiment (2.5 mM).
First, 145 uL of a complete cell culture medium was added to wells B1-G1 of a 96-well flat-bottomed tansparent cell culture plate, and 100 uL of the complete medium was added to wells B2-G12, respectively. Then, 5 uL of the 2.5 mM solution of the compound was added to wells B1-D1 and E1-G1 respectively, and then diluted gradiently by 3-folds to B12-D12 and E12-G12 in sequence. Finally, 50 uL of the solution of the cells to be tested was added to each well, with about 3000-5000 cells per well, and a total volume of 150 uL per well.
In the experiment, in addition to the tested compound, two other control groups were set up: 1) a control group adding the cells and the complete medium, but without adding the compound; 2) a control group adding the complete medium only, without adding the cells and the compound. The 96-well plate was placed in a 37° C. cell culture incubator containing 5% carbon dioxide for 4 days, added with 15 uL of a CCK-8 reagent per well, and then incubated at 37° C. for 2-4 hours. The 96-well plate was read on a TECAN microplate reader, and the absorbance value at 450 nm wavelength was taken.
The effect of different concentrations of the compound on cell viability was calculated by the following equation: [absorption value of the experimental group−absorption value of pure cell culture medium without the cells or the compound]/[absorption value of the control group with the tumor cells but no testing compound−absorption value of pure cell culture medium without the cell or the compound]×100%.
The above data were precessed by software, and the IC50 value was the concentration of the compound corresponding to the 50% inhibition rate of cell growth.
Based on the above test method of the compound on cell viability, a variety of […] cancer cell lines were tested, using multiple myeloma MM.1S, breast cancer MDA-MB-231 and leukemia MV4-11 cell lines as exemples. Using this test method, the IC50 values of partial compounds in the examples of the present invention measured in multiple myeloma MM.1S, breast cancer MDA-MB-231 cell lines and leukemia MV4-11 cell lines were shown in Table 2.

SMILES	Ki [1]	Ki [2]	IC50 [3] [nM]	IC50 [4] [nM]
CCN1CC=C(c2ccc3c(c2)C(Nc2cccc(Cl)c2)CCn2nnc(C)c2-3)CC1 (centres unmarked) [BH36, N-(3-chlorophenyl)-9-(1-ethyl-1,2,3,6-tetrahydropyridin-4-yl)-1-methyl-6,7-dihydro-5H-benzo[c][1,2,3]triazolo[1,5-a]azepin-7-amine 2,2,2-trifluoroacetate]	717 nM and 1400 nM	13.8 nM and 16 nM	146	57.5
Cc1nnn2c1-c1ccc(C3=CCN(C4CCCCC4)CC3)cc1C(Nc1cccc(Cl)c1)CC2 (centres unmarked) [BH104, N-(3-chlorophenyl)-9-(1-cyclohexyl-1,2,3,6-tetrahydropyridin-4-yl)-1-methyl-6,7-dihydro-5H-benzo[c][1,2,3]triazolo[1,5-a]azepin-7-amine 2,2,2-trifluoroacetate]	710 nM	13.4 nM	119	1.32
Cc1nnn2c1-c1ccc(C3=CCN(C4CCC4)CC3)cc1C(Nc1cccc(Cl)c1)CC2 (centres unmarked) [BH159, N-(3-chlorophenyl)-9-(1-cyclobutyl-1,2,3,6-tetrahydropyridin-4-yl)-1-methyl-6,7-dihydro-5H-benzo[c][1,2,3]triazolo[1,5-a]azepin-7-amine 2,2,2-trifluoroacetate]	879 nM	9.31 nM	285	75.2
Cc1nnn2c1-c1ccc(C3=CCN(C4CCCCC4)CC3)cc1C(Nc1cc(Cl)ccc1F)CC2 (centres unmarked) [BH187, N-(5-chloro-2-fluorophenyl)-9-(1-cyclohexyl-1,2,3,6-tetrahydropyridin-4-yl)-1-methyl-6,7-dihydro-5H-benzo[c][1,2,3]triazolo[1,5-a]azepin-7-amine 2,2,2-trifluoroacetate]	1720 nM	28.8 nM	1300	106
Cc1nnn2c1-c1ccc(C3=CCN(C4CCCC4)CC3)cc1C(Nc1cc(Cl)ccc1F)CC2 (centres unmarked) [BH190, N-(5-chloro-2-fluorophenyl)-9-(1-cyclopentyl-1,2,3,6-tetrahydropyridin-4-yl)-1-methyl-6,7-dihydro-5H-benzo[c][1,2,3]triazolo[1,5-a]azepin-7-amine 2,2,2-trifluoroacetate]	1620 nM	12.9 nM and 27.9 nM	248	62.8
CC(=O)N1CC=C(c2ccc3c(c2)C(Nc2cc(Cl)ccc2F)CCn2nnc(C)c2-3)CC1 (centres unmarked) [BH192, 1-(4-(7-((5-chloro-2-fluorophenyl)amino)-1-methyl-6,7-dihydro-5H-benzo[c][1,2,3]triazolo[1,5-a]azepin-9-yl)-3,6-dihydropyridin-1 (2H)-yl)ethan-1-one]	106 nM	3.45 nM	6.15	0.21
Cc1nnn2c1-c1ccc(-c3cnn(C)c3)cc1C(Nc1cccc(CO)c1)CC2 (centres unmarked) [LB164, (3-((1-methyl-9-(1-methyl-1H-pyrazol-4-yl)-6,7-dihydro-5H-benzo[c][1,2,3]triazolo[1,5-a]azepin-7-yl)amino)phenyl)methanol]	95.7 nM	12.7 nM	26	39.3
Cc1nnn2c1-c1ccc(-c3cnn(C)c3)cc1C(Nc1ccccc1CO)CC2 (centres unmarked) [LB192, (2-((1-methyl-9-(1-methyl-1H-pyrazol-4-yl)-6,7-dihydro-5H-benzo[c][1,2,3]triazolo[1,5-a]azepin-7-yl)amino)phenyl)methanol]	94.6 nM	16.1 nM	< 1	< 0.1
CC(=O)N1CC=C(c2ccc3c(c2)C(Nc2ccc(F)c(Cl)c2)CCn2nnc(C)c2-3)CC1 (centres unmarked) [LD77, 1-(4-(7-((3-chloro-4-fluorophenyl)amino)-1-methyl-6,7-dihydro-5H-benzo[c][1,2,3]triazolo[1,5-a]azepin-9-yl)-3,6-dihydropyridin-1(2H)-yl)ethan-1-one]	81.7 nM	3.97 nM and 3.16 nM	1.86	
Cc1nnn2c1-c1ccc(-c3ccncc3)cc1C(Nc1ccc(Cl)cc1)CC2 (centres unmarked) [RA188, N-(4-chlorophenyl)-1-methyl-9-(pyridin-4-yl)-6,7-dihydro-5H-benzo[c][1,2,3]triazolo[1,5-a]azepin-7-amine]	73.7 nM	17.1 nM	8.54	
Cc1nnn2c1-c1ccc(-c3cccnc3)cc1C(Nc1ccc(Cl)cc1)CC2 (centres unmarked) [RA193, N-(4-chlorophenyl)-1-methyl-9-(pyridin-3-yl)-6,7-dihydro-5H-benzo[c][1,2,3]triazolo[1,5-a]azepin-7-amine]	52 nM	11.1 nM	50.5	
Cc1nnn2c1-c1ccc(-c3ccc(NC(=O)OC(C)(C)C)cc3)cc1C(Nc1ccc(Cl)cc1)CC2 (centres unmarked) [RA194, tert-butyl (4-(7-((4-chlorophenyl)amino)-1-methyl-6,7-dihydro-5H-benzo[c][1,2,3]triazolo[1,5-a]azepin-9-yl)phenyl)carbamate]	29.1 nM	24.1 nM	329	
Cc1nnn2c1-c1ccc(-c3ccc(N)nc3)cc1C(Nc1ccc(Cl)cc1)CC2 (centres unmarked) [RB03, 9-(6-aminopyridin-3-yl)-N-(4-chlorophenyl)-1-methyl-6,7-dihydro-5H-benzo[c][1,2,3]triazolo[1,5-a]azepin-7-amine]	36.9 nM	16.6 nM	16.9	
Cc1nnn2c1-c1ccc(-c3cncnc3)cc1C(Nc1ccc(Cl)cc1)CC2 (centres unmarked) [RB06, N-(4-chlorophenyl)-1-methyl-9-(pyrimidin-5-yl)-6,7-dihydro-5H-benzo[c][1,2,3]triazolo[1,5-a]azepin-7-amine]	129 nM	15.4 nM	53.2	
Cc1nnn2c1-c1ccc(-c3cn[nH]c3)cc1C(Nc1ccc(Cl)cc1)CC2 (centres unmarked) [RB07, N-(4-chlorophenyl)-1-methyl-9-(1H-pyrazol-4-yl)-6,7-dihydro-5H-benzo[c][1,2,3]triazolo[1,5-a]azepin-7-amine]	51.2 nM	19.8 nM	13.6	
Cc1nnn2c1-c1ccc(-c3ccc4c(c3)OCO4)cc1C(Nc1ccc(Cl)cc1)CC2 (centres unmarked) [RB11, 9-(benzo[d][1,3]dioxo1-5-yl)-N-(4-chlorophenyl)-1-methyl-6,7-dihydro-5H-benzo[c][1,2,3]triazolo[1,5-a]azepin-7-amine]	89.9 nM	12.9 nM	323	
Cc1nnn2c1-c1ccc(-c3ccnc4[nH]ccc34)cc1C(Nc1ccc(Cl)cc1)CC2 (centres unmarked) [RB31, N-(4-chlorophenyl)-1-methyl-9-(1H-pyrrolo[2,3-b]pyridin-4-yl)-6,7-dihydro-5H-benzo[c][1,2,3]triazolo[1,5-a]azepin-7-amine]	33.6 nM	24.7 nM	676	
Cc1nnn2c1-c1ccc(-c3cccc4[nH]cnc34)cc1C(Nc1ccc(Cl)cc1)CC2 (centres unmarked) [RB42, 9-(1H-benzo[d]imidazol-4-yl)-N-(4-chlorophenyl)-1-methyl-6,7-dihydro-5H-benzo[c][1,2,3]triazolo[1,5-a]azepin-7-amine]	53 nM	25.7 nM	324	
Cc1nnn2c1-c1ccc(-c3cnn(C)c3)cc1C(N(C)c1ccc(Cl)cc1)CC2 (centres unmarked) [RB66, N-(4-chlorophenyl)-N,1-dimethyl-9-(1-methyl-1H-pyrazol-4-yl)-6,7-dihydro-5H-benzo[c][1,2,3]triazolo[1,5-a]azepin-7-amine]	62.9 nM	9 nM	31.3	
Cc1nnn2c1-c1ccc(-c3cncc4[nH]ccc34)cc1C(Nc1ccc(Cl)cc1)CC2 (centres unmarked) [RB90, N-(4-chlorophenyl)-1-methyl-9-(1H-pyrrolo[2,3-c]pyridin-4-yl)-6,7-dihydro-5H-benzo[c][1,2,3]triazolo [1,5-a]azepin-7-amine]	104 nM	35.2 nM	257	
Cc1nnn2c1-c1ccc(C3=CCNCC3)cc1C(Nc1ccc(Cl)cc1)CC2 (centres unmarked) [RB99, N-(4-chlorophenyl)-1-methyl-9-(1,2,3,6-tetrahydropyridin-4-yl)-6,7-dihydro-5H-benzo[c][1,2,3]triazolo[1,5-a]azepin-7-amine hydrochloride]	422 nM	19.4 nM	215	
